Assay: Production and decomposition of squalene hydroperoxides with Rose Bengal and metal ion catalyst, monitored by HPLC
Experimental: Aldrich), 10 ml of acetone and 200 µl of Rose Bengal solution (2 mg/ml). Rose Bengal (4,5,6,7-tetrachloro-2',4',5',7'-tetraiodofluorescein) is a singlet-oxygen photobleach. Air was bubbled through the solution over the whole of the 3 hour monitoring period without the metal ion catalyst, under irradiation by a xenon lamp to simulate day-light. […] The reaction monitored by HPLC using via UV. detection at 230 nm and 260 nm and actonitrile was the mobile phase. The first HPLC measurement taken was at t=0 (before addition of Rose Bengal). Typically the squalene peak was eluted at 15 minutes, and the hydroperoxides eluted at times between 2-10 minutes. For the purpose of the experiment the hydroperoxide peaks at 3 and 5.7 minutes after starting the column were monitored for any change in relative peak height.

[1] = time 1.5 h, RB None, IronMeN4py Yes (5 mg catalyst added after 90 minutes)
[2] = time 1.0 h, RB Yes, IronMeN4py None, squalene in acetone, air, xenon lamp, 10 °C
[3] = time 3.0 h, RB Yes, IronMeN4py None, squalene in acetone, air, xenon lamp, 10 °C

Compound	Relative Peak Height at t=3 minutes [1]	Relative Peak Height at t=5.7 minutes [1]	Relative Peak Height at t=3 minutes [2]	Relative Peak Height at t=5.7 minutes [2]	Relative Peak Height at t=3 minutes [3]	Relative Peak Height at t=5.7 minutes [3]
CC(c1ccccn1)(c1ccccn1)N(Cc1ccccn1)Cc1ccccn1.[Cl-].[Cl-].[Fe+2] [IronMeN4py, iron(II) N,N-bis(pyridine-2-yl-methyl)-1,1-bis(pyridine-2-yl)-1-aminoethane dichloride]	0	300	–	–	–	–
O=C1OC2(c3cc(I)c(O)c(I)c3Oc3c2cc(I)c(O)c3I)c2c(Cl)c(Cl)c(Cl)c(Cl)c21 [RB, 4,5,6,7-tetrachloro-2',4',5',7'-tetraiodofluorescein]	–	–	600	2100	2000	2100
